From patent US20100298141A1, “SUBSTITUTED PYRIDINE N-OXIDE HERBICIDES” (E. I. DU PONT DE NEMOURS AND COMPANY, priority 2007, published 2010)

Tests used:
[1] = tested on: eastern black nightshade; experiment: Test C pre-/postemergence test; assay type: in vivo, Solanum ptycanthum; details: Preemergence
In short: (§1)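 Compounds in a non-phytotoxic solvent with surfactant applied preemergence to seeded pots and, at the same time, postemergence to plants 2–18 cm tall (1- to 4-leaf stage). Paddy tests: pots flooded to 3 cm, compound applied into the water, depth held throughout.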

[2] = tested on: morningglory; experiment: Test C pre-/postemergence test; assay type: in vivo, Ipomoea coccinea; details: Preemergence
In short: as §1

[3] = tested on: wild oat; experiment: Test C pre-/postemergence test; assay type: in vivo, Avena fatua; details: Preemergence
In short: as §1

[4] = tested on: giant foxtail; experiment: Test C pre-/postemergence test; assay type: in vivo, Setaria faberii; details: Preemergence
In short: as §1

[5] = tested on: wheat; experiment: Test C pre-/postemergence test; assay type: in vivo, Triticum aestivum; details: Preemergence
In short: as §1

[6] = tested on: yellow nutsedge; experiment: Test C pre-/postemergence test; assay type: in vivo, Cyperus esculentus; details: Preemergence
In short: as §1

[7] = tested on: johnsongrass; experiment: Test C pre-/postemergence test; assay type: in vivo, Sorghum halepense; details: Preemergence
In short: as §1

[8] = tested on: catchweed bedstraw; experiment: Test C pre-/postemergence test; assay type: in vivo, Galium aparine; details: Preemergence
In short: as §1

[9] = tested on: rice; experiment: Test C flooded paddy test; assay type: in vivo, Oryza sativa; details: Flood
In short: (§2)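 Pots were flooded to 3 cm above the soil surface at treatment, compound applied directly to the paddy water, and that depth held throughout. Plants were kept in a greenhouse for 13 to 15 days, then visually rated against untreated controls.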

[10] = tested on: woolly cupgrass; experiment: Test C pre-/postemergence test; assay type: in vivo, Eriochloa villosa; details: Preemergence
In short: as §1

[11] = tested on: downy brome; experiment: Test C pre-/postemergence test; assay type: in vivo, Bromus tectorum
In short: as §1

[12] = tested on: wheat; experiment: Test A pre-/postemergence greenhouse test; assay type: in vivo, Triticum aestivum; details: for Wheat plant response rating: 0 to 100 scale
In short: (§3)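 Sowing in loam/sand; same-day pre (directed soil spray) and post (foliar, 1–2 leaf, 2–10 cm) treatment with surfactant-containing non-phytotoxic solvent formulation; ~10 days in greenhouse; eye-scored injury against untreated plants.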

[13] = tested on: duck salad; experiment: Test C flooded paddy test; assay type: in vivo, Heteranthera limosa; details: Flood
In short: as §2

[14] = tested on: redroot pigweed; experiment: Test A pre-/postemergence greenhouse test; assay type: in vivo, Amaranthus retroflexus; details: for Pigweed plant response rating: 0 to 100 scale
In short: as §3

[15] = tested on: velvetleaf; experiment: Test A pre-/postemergence greenhouse test; assay type: in vivo, Abutilon theophrasti; details: for Velvetleaf plant response rating: 0 to 100 scale
In short: as §3

[16] = tested on: corn; experiment: Test C pre-/postemergence test; assay type: in vivo, Zea mays
In short: as §1

[17] = tested on: velvetleaf; experiment: Test C pre-/postemergence test; assay type: in vivo, Abutilon theophrasti; details: Preemergence
In short: as §1

[18] = 31 g ai/ha, scale 0 to 100 (0 no effect, 100 complete control)
[19] = 62 g ai/ha, scale 0 to 100, 0 no effect, 100 complete control, 13 to 15 days
[20] = 125 g ai/ha, scale 0 to 100, 0 no effect, 100 complete control, 13 to 15 days
[21] = 250 g ai/ha, scale 0 to 100 (0 no effect, 100 complete control)
[22] = 62 g ai/ha, Preemergence, scale 0 to 100
[23] = Preemergence, 31 g ai/ha, scale 0 to 100 (0 no effect, 100 complete control)
[24] = preemergence, 125 g ai/ha, scale 0 (no effect) to 100 (complete control)
[25] = Postemergence, 125 g ai/ha, 0 is no effect, 100 is complete control
[26] = Postemergence, 500 g ai/ha, 0 is no effect, 100 is complete control
[27] = Preemergence, 125 g ai/ha, 0 no effect, 100 complete control
[28] = Preemergence, 500 g ai/ha, 0 to 100 scale where 0 is no effect and 100 is complete control

Cn1nc(C(F)(F)F)c(C[S+]([O-])c2cc(C(C)(C)C)cc[n+]2[O-])c1OC(F)F (racemic) [Compound 24]
98: Galium plant response rating ([8]; 62 g ai/ha, scale 0 to 100)
90: Foxtail, Giant plant response rating ([4]; 62 g ai/ha, scale 0 to 100) | Johnsongrass plant response rating ([7]; 62 g ai/ha, scale 0 to 100) | Plant response rating, Wheat [12, 28] | Plant response rating (0 to 100), Corn ([16]; Preemergence, 250 g ai/ha) | Corn plant response rating [16, 24]
65: Plant response rating (0 to 100), Bromegrass, Downy ([11]; Preemergence, 250 g ai/ha)
10: Plant response rating, Bromegrass, Downy [11, 23]
60: Cupgrass, Woolly plant response rating ([10]; 62 g ai/ha, scale 0 to 100) | Plant response rating, Ducksalad [13, 19] | Velvetleaf plant response rating [15, 26]
50: Plant response rating, Oat, Wild [3, 18] | Plant response rating, Johnsongrass [7, 18] | Bromegrass, Downy plant response rating [11, 22] | Bromegrass, Downy plant response rating [11, 24] | Wheat plant response rating [12, 27] | Pigweed plant response rating [14, 26] | Corn plant response rating [16, 22]
55: Plant response rating, Velvetleaf [17, 18]
30: Plant response rating, Rice [9, 19] | Wheat plant response rating [12, 26]
20: Pigweed plant response rating [14, 25]
40: Wheat plant response rating ([5]; 62 g ai/ha, scale 0 to 100) | Plant response rating, Cupgrass, Woolly [10, 18] | Velvetleaf plant response rating [15, 25]
45: Plant response rating, Rice [9, 20]
85: Plant response rating, Ducksalad [13, 21]
0: Plant response rating, Wheat [5, 18] | Plant response rating, Nutsedge, Yellow [6, 18] | Plant response rating, Galium [8, 18] | Plant response rating, Rice [9, 18] | Wheat plant response rating [12, 25] | Plant response rating, Ducksalad [13, 18] | Plant response rating, Corn [16, 23]
80: Morningglory plant response rating ([2]; 62 g ai/ha, scale 0 to 100) | Oat, Wild plant response rating ([3]; 62 g ai/ha, scale 0 to 100) | Plant response rating, Rice [9, 21] | Plant response rating, Ducksalad [13, 20]
100: Nightshade plant response rating ([1]; 62 g ai/ha, scale 0 to 100) | Plant response rating, Nightshade [1, 18] | Plant response rating (0 to 100), Foxtail, Giant ([4]; 250 g ai/ha) | Plant response rating (0 to 100), Johnsongrass ([7]; 250 g ai/ha) | Plant response rating (0 to 100), Galium ([8]; 250 g ai/ha) | Plant response rating (0 to 100), Cupgrass, Woolly ([10]; 250 g ai/ha) | Pigweed plant response rating [14, 27] | Plant response rating, Pigweed [14, 28] | Plant response rating, Velvetleaf [15, 28] | Velvetleaf plant response rating ([17]; 62 g ai/ha, scale 0 to 100)
70: Plant response rating, Morningglory [2, 18] | Plant response rating, Foxtail, Giant [4, 18] | Nutsedge, Yellow plant response rating ([6]; 62 g ai/ha, scale 0 to 100) | Velvetleaf plant response rating [15, 27]
